Test results from ChEMBL document CHEMBL2095176, “GSK Tuberculosis Screening Data”.
Values after ≈ are worked out from the molar mass of the structure shown.

Tested on: Mycobacterium tuberculosis variant bovis BCG
Assay: microbe, parasite or virus in culture
Format: functional

| Structure (SMILES) | MIC90 |
| --- | --- |
| O=C(Nc1nc(-c2ccccn2)cs1)c1ccc(Oc2ccccc2)cc1 | 7 µM (≈ 2.61 µg/mL) |
| Nc1nonc1-c1nc2c(-c3ccccc3)nccc2n1C1CCNCC1 | 0.5 µM (≈ 0.181 µg/mL) |
| O=C(NC1CCN(Cc2ccccc2)C1)c1cccc(-c2ccc(Cl)cc2)c1 (configuration not stated) | 10 µM (≈ 3.91 µg/mL) |
| CCc1c(C)nc(-c2cccc(C(F)(F)F)c2)nc1N1CCNCC1 | 8.6 µM (≈ 3.01 µg/mL) |
| CC(=O)Nc1ccc(S(=O)(=O)Nc2ccccc2Nc2ccc(C)cc2)cc1 | 1.9 µM (≈ 0.751 µg/mL) |
| CN1CCN(c2cc(-c3ccncc3)nc(-c3ccccc3)n2)CC1 | 8.5 µM (≈ 2.82 µg/mL) |
| CSc1cccc(-c2nnc(NC(=O)c3ccc(Cl)s3)o2)c1 | 9.6 µM (≈ 3.38 µg/mL) |
| CCN(CC)CCCn1c(Cc2ccccc2)nnc1Sc1ccnc(N2CCN(c3ccncc3)CC2)n1 | 2.9 µM (≈ 1.58 µg/mL) |
| c1ccc2nc(CN3CCC4(CC3)OCCc3sccc34)ccc2c1 | 9.1 µM (≈ 3.19 µg/mL) |
| O=C(c1cnn(C(=O)c2ccco2)c1)c1ccccc1O | 2.5 µM (≈ 0.706 µg/mL) |
| O=C(COc1ccc2c(c1)CCC2)NNC(=O)c1cccs1 | 4.2 µM (≈ 1.33 µg/mL) |
| Cn1c(=O)c2c([S+](C)[O-])snc2n(C)c1=O (configuration not stated) | 5.6 µM (≈ 1.45 µg/mL) |
| Brc1cncc(-c2cc(NCCCn3ccnc3)nc(-c3ccccc3)n2)c1 | 7.6 µM (≈ 3.31 µg/mL) |
| O=C(Nc1cccc(C(=O)N2CCCC2c2nc3ccccc3s2)c1)c1cccs1 (configuration not stated) | 6.9 µM (≈ 2.99 µg/mL) |
| Cc1ccc2c(NC(=O)Nc3ccc(N(C)C)cc3)cc(C)nc2c1 | 5.8 µM (≈ 1.94 µg/mL) |
| Cc1cccc(-c2nc(Nc3ccncn3)c3c(C)csc3n2)n1 | 0.3 µM (≈ 0.1 µg/mL) |
| CSc1nc2ccccc2n1-c1nccc(N2CCN(CCN)CC2)n1 | 9.9 µM (≈ 3.66 µg/mL) |
| COc1ccc(N(C(=O)CNc2ccccc2Nc2ccccc2)C2CCCC2)cc1 | 2.1 µM (≈ 0.873 µg/mL) |
| Cc1ccc(-c2nnc3sc(Cc4cccs4)nn23)cc1 | 5.5 µM (≈ 1.72 µg/mL) |

| Structure (SMILES) | MIC90 |
| --- | --- |
| COc1ccc(-c2ccc(Nc3cccc(S(=O)(=O)CCN(C)CCc4ccccn4)c3)nc2)cn1 | 7.3 µM (≈ 3.68 µg/mL) |
| O=C(/C=C/c1ccc(C(F)(F)F)cc1F)NC1CCN(c2ncccc2C(F)(F)F)CC1 | 4.2 µM (≈ 1.94 µg/mL) |
| O=C(Nc1nnc(SCc2ccc(Cl)cc2)s1)c1ccccn1 | 4 µM (≈ 1.45 µg/mL) |
| O=C(Nc1ccccc1-c1nc(Cl)cs1)OCCC1CCCCN1 (configuration not stated) | 0.2 µM (≈ 0.0732 µg/mL) |
| c1ccc(Nc2cc(-c3ccccc3)nc(-c3ccccn3)n2)cc1 | 3.7 µM (≈ 1.2 µg/mL) |
| Fc1ccc(-c2nnc3sc(Cc4ccccc4)nn23)cc1 | 8.6 µM (≈ 2.67 µg/mL) |
| Cc1ccc(-n2nc(C)c3c(N4CCCNCC4)nc(C4CC4)nc32)cc1 | 0.8 µM (≈ 0.29 µg/mL) |
| O=C(COCC(=O)Nc1nc(-c2ccccn2)cs1)Nc1nc(-c2ccccn2)cs1 | 4 µM (≈ 1.81 µg/mL) |
| Cc1ccc(C)c(-c2nnc(NC(=O)c3ccc(Br)s3)o2)c1 | 1.6 µM (≈ 0.605 µg/mL) |
| CC(c1nc2ccccc2s1)N(C)C(=O)c1ccc2c(c1)CC(c1ccccc1)OC2=O (configuration not stated) | 1.6 µM (≈ 0.708 µg/mL) |
| O=C(CCC(=O)NNC(=O)c1ccco1)NNC(=O)c1ccco1 | 8.6 µM (≈ 2.87 µg/mL) |
| Cc1nnc(SCC(=O)NNC(=O)c2ccco2)nc1O | 3 µM (≈ 0.928 µg/mL) |
| Br.Cc1ccccc1OCCCON1C(=N)N=C(N)NC1(C)C | 7 µM |
| Br.CCc1ccccc1OCCCON1C(=N)N=C(N)NC1(C)C | 2.8 µM |
| CC1CN(Cc2cccc(C(=O)NCc3ccc(F)c(-c4cccc(CN5CCN[C@@H](C)C5)c4)c3)c2)C(C)CN1 (some centres not stated) | 8.9 µM (≈ 4.84 µg/mL) |
| Cc1ccc(C2CC(C(F)(F)F)n3ncc(C(=O)NCc4ccc5c(c4)OCO5)c3N2)cc1 (configuration not stated) | 1.9 µM (≈ 0.871 µg/mL) |
| Cc1cc(O)nc(-n2nc(C)cc2NC(=O)c2cc3ccccc3o2)n1 | 6.2 µM (≈ 2.17 µg/mL) |
| c1ccc(Cc2nn3c(-c4ccccc4)nnc3s2)cc1 | 8.2 µM (≈ 2.4 µg/mL) |
| CC(=O)c1cccc(NC(=O)N(CCc2cccnc2)Cc2csc(-c3ccc(CNCc4ccccc4)cc3)n2)c1 | 2.6 µM (≈ 1.5 µg/mL) |

| Structure (SMILES) | MIC90 |
| --- | --- |
| O=C(CSc1ccc(Cl)cc1)NNC(=O)c1cccs1 | 4.8 µM (≈ 1.57 µg/mL) |
| COc1cc(C(C)(C)C)ccc1C(=O)Nc1cccc2c1CCC2N (configuration not stated) | 2.7 µM (≈ 0.914 µg/mL) |
| CC(C)Cc1cn(-c2nc(CN3CCCC3)cs2)c2cc(Cl)ccc12 | 1.9 µM (≈ 0.711 µg/mL) |
| NC(=O)c1cc(-c2ccsc2)ccc1OCCOc1ccccc1 | 2.7 µM (≈ 0.916 µg/mL) |
| Br.CC1(C)NC(N)=NC(=N)N1OCCCOc1ccc(Cl)cc1Cl | 4.5 µM |
| CCOc1ccc(C(=O)Nc2cc(Cl)c3c(c2)CNCC3)cc1C(C)=O | 9.2 µM (≈ 3.43 µg/mL) |
| Cn1c(Sc2ccnc(N3CCN(c4ccncc4)CC3)n2)nnc1C(N)=O | 6.9 µM (≈ 2.74 µg/mL) |
| O=C(COc1ccc(Br)cc1)NNC(=O)c1cccs1 | 2.4 µM (≈ 0.853 µg/mL) |
| Cc1cc(CN2CCC3(CC2)OCCc2sccc23)oc1C | 2.1 µM (≈ 0.667 µg/mL) |
| O=C(Nc1nc(-c2ccccn2)cs1)c1cc2c(F)cccc2s1 | 2.1 µM (≈ 0.746 µg/mL) |
| Cc1ccc(S(=O)(=O)c2nc(S(=O)(=O)c3ccccc3)sc2Cl)cc1 | 9.6 µM (≈ 3.97 µg/mL) |
| CN(C)CCCC(=O)Nc1[nH]nc2cnc(-c3cncc(-c4ccccc4)c3)cc12 | 8.4 µM (≈ 3.36 µg/mL) |
| Cc1ccc(S(=O)(=O)N2CCC(n3nnc4cc(C(F)(F)F)ccc43)CC2)cc1Cl | 9.3 µM (≈ 4.27 µg/mL) |
| OC1(c2ccccc2)Oc2ccccc2N=C1c1ccccc1 (configuration not stated) | 4.8 µM (≈ 1.45 µg/mL) |
| c1ccc2c(Cc3nnc(Sc4ccnc(N5CCN(c6ccncc6)CC5)n4)n3CCCN3CCOCC3)c[nH]c2c1 | 2.2 µM (≈ 1.31 µg/mL) |
| CCCCNC(=O)N1CCN(Cc2cccc3ccccc23)CC1 | 8.8 µM (≈ 2.86 µg/mL) |
| CCCNc1cc(-c2ccccc2)nc(-n2nc(C)cc2C)n1 | 5 µM (≈ 1.54 µg/mL) |
| CC(=O)Nc1cc(C(=O)Nc2ccc(C3=NCCN3)cc2)ccc1C(=O)Nc1ccc(C2=NCCN2)cc1 | 1.6 µM (≈ 0.815 µg/mL) |
| C=CCNc1nc(SC)nc2ccccc12 | 4.4 µM (≈ 1.02 µg/mL) |
